Results as given in US7041461B2 (H. Lundbeck A/S, priority 1998, dated 2006).
Entries after “also recorded” stand apart in the source; their conditions may differ. Non-standard residues stand in square brackets, D forms with d. Residues, ends and D or L forms follow the SMILES beside them. No end group written: not given here. NMeF = CN[C@@H](Cc1ccccc1)C(=O)O

How the values were obtained:
[1] = biological target: T1, NPFF2 (hNPFF2) (Homo sapiens, UniProt Q9Y5X5); test: Voltage-clamp electrophysiology in Xenopus oocytes expressing NPFF2 (NPFF-like) and chimeric Gαq/z; type: cell-based; conditions: 1 μM; oocytes with NPFF2 (NPFF-like) mRNA and Gαq/z; −80 mV
T1 construct: BO89, was determined to be a full length clone with no point mutations; expressed in transfected cells; host or cells: Xenopus laevis oocytes injected with synthetic mRNA
Method: Electrophysiological responses in voltage-clamped oocytes expressing NPFF2 mRNA. […] Oocytes were clamped at a holding potential of −80 mV.
For expression of NPFF2, mRNA transcripts were generated as described for NPFF1, using PCR products from ligation reactions or linearized DNA from B089 as DNA templates. Oocytes were injected with 5–50 ng NPFF2 mRNA and incubated as previously described.
(§1) Oocytes were harvested from Xenopus laevis and injected with mRNA transcripts as previously described (Quick and Lester, 1994; Smith et al., 1997). […] Three to eight hours prior to recording, oocytes were injected with 500 pg Gαq/z mRNA in order to observe coupling to Ca^++ activated Cl^− currents. Dual electrode voltage clamp (Axon Instruments Inc.) was performed using 3 M KCl-filled glass microelectrodes having resistances of 1–2 Mohm. Unless otherwise specified, oocytes were voltage clamped at a holding potential of −80 mV. During recordings, oocytes were bathed in continuously flowing (1–3 ml/min) medium containing 96 mM NaCl, 2 mM KCl, 1.8 mM CaCl2, 1 mM MgCl2, and 5 mM HEPES, pH 7.5 (ND96). Drugs were applied either by local perfusion from a […] glass capillary tube fixed at a distance of 0.5 mm from the oocyte, or by switching from a series of gravity fed perfusion lines.

[2] = biological target: T2, cloned rat NPFF1 receptor (Rattus norvegicus, UniProt Q9EP86); test: Radioligand binding to cloned rat NPFF1 receptor, membranes of transiently transfected COS-7 cells; conditions: competition of [125I]D-Tyr-NPFF binding, transiently transfected COS-7 membranes; for Ki: read-out: pKi for cloned rat NPFF1 receptor binding in COS-7 cells, MEAN (converted)
T2 construct: expressed in transfected cells; host or cells: COS-7 cells, transient; membranes
Method: Transfected cells from culture flasks are scraped into 5 ml of 20 mM Tris-HCl, 5 mM EDTA, pH 7.5, and lysed by sonication. The cell lysates are centrifuged at 1000 rpm for 5 min. at 4° C., and the supernatant is centrifuged at 30,000× g for 20 min. at 4° C. […] Optimal membrane suspension dilutions, defined as the protein concentration required to bind less than 10% of the added radioligand, […], unlabeled compounds, and binding buffer to a final volume of 250 μl. In equilibrium saturation binding assays membrane preparations are incubated in the presence of increasing concentrations of [^3H]-labeled compound.
(§2) Competition assay: 50 pM radioligand, 10–12 points. Binding reaction mixtures are incubated for 2 hr at 25° C., and the reaction stopped by filtration through a double layer of GF filters treated with 0.1% polyethyleneimine, using a cell harvester. Wash buffer: 50 mM Tris-HCl, 0.1% BSA. Radioactivity may be measured by scintillation counting and data are analyzed by a computerized non-linear regression program. Non-specific binding is defined as the amount of radioactivity remaining after incubation of membrane protein in the presence of 1 μM final concentration […]. Protein concentration may be measured by the Bradford method using Bio-Rad Reagent, with bovine serum albumin as a standard.
Cos-7 cells transiently expressing the gene encoding the novel rat NPFF1 receptor were used for pharmacological evaluation. […]

[3] = biological target: rat spinal cord membrane receptor; test: Radioligand binding to rat spinal cord membranes; conditions: * marks difference from NPFF1
Method: Transfected cells from culture flasks are scraped into 5 ml of 20 mM Tris-HCl, 5 mM EDTA, pH 7.5, and lysed by sonication. The cell lysates are centrifuged at 1000 rpm for 5 min. at 4° C., and the supernatant is centrifuged at 30,000× g for 20 min. at 4° C. […] Optimal membrane suspension dilutions, defined as the protein concentration required to bind less than 10% of the added radioligand, are added to 96-well polpropylene microtiter plates containing ^3H-labeled compound, unlabeled compounds, and binding buffer to a final volume of 250 μl. In equilibrium saturation binding assays membrane preparations are incubated in the presence of increasing concentrations of [^3H]-labeled compound.
as §2
The binding profile of rat NPFF1 was compared to that of rat spinal cord membranes. […] (See * Table 2).

[4] = biological target: T3, NPFF-1 receptor (Rattus norvegicus, UniProt Q9EP86); test: Total inositol phosphate release in transiently transfected Cos-7 cells; type: cell-based
T3 construct: expressed in transfected cells; host or cells: Cos-7 cells, transient, intact cells

[5] = biological target: T4, SNORF2 (NPFF1) (Rattus norvegicus, UniProt Q9EP86); test: Voltage-clamp electrophysiology in Xenopus oocytes expressing SNORF2 (NPFF1) and chimeric Gαq/z; type: cell-based
T4 construct: from linearized plasmids or PCR products containing the complete coding region of the genes; expressed in transfected cells; host or cells: Xenopus laevis oocytes injected with synthetic RNA
Method: as §1
Heterologous expression of GPCRs in Xenopus oocytes has been widely used to determine the identity of signaling pathways activated by agonist stimulation (Gundersen et al., 1983; Takahashi et al., 1987). Activation of the phospholipase C (PLC) pathway is assayed by applying test compound in ND96 solution to oocytes previously injected with mRNA for the mammalian receptor and observing inward currents at a holding potential of −80 mV. The appearance of currents that reverse at −25 mV and display other properties of the Ca^++-activated Cl^− (chloride) channel is indicative of mammalian receptor-activation of PLC and release of IP3 and intracellular Ca^++.
Control oocytes receiving only G-protein synthetic RNA were unresponsive to these peptides. […] Similarly, SNORF2-like was renamed NPFF-like.

T1 sequence (Q9Y5X5 103-522): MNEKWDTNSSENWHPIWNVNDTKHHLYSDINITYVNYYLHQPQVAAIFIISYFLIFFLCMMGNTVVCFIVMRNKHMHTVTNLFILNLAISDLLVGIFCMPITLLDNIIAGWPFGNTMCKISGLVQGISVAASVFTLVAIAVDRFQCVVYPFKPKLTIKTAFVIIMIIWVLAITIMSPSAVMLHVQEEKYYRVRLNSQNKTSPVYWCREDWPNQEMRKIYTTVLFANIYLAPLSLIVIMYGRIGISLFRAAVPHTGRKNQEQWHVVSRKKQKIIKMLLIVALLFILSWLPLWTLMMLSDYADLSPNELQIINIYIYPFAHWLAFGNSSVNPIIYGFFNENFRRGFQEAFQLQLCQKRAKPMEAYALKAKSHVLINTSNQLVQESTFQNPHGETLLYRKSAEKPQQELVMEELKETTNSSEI
T4 sequence (Q9EP86 whole entry): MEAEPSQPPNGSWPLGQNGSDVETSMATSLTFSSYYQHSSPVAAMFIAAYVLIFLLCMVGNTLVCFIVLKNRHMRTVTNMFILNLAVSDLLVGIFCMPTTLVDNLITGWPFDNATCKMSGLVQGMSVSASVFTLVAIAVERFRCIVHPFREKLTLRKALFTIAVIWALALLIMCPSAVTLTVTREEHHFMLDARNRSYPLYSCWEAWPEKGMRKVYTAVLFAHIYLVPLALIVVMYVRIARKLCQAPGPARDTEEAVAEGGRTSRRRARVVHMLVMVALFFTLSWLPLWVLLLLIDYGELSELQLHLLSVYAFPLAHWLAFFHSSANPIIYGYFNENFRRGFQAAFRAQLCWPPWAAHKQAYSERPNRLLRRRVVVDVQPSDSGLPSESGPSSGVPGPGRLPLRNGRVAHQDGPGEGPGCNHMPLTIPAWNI
T2 sequence (Q9EP86 whole entry): as above
T3 sequence (Q9EP86 whole entry): as above

| Compound | pKi for cloned rat NPFF1 receptor binding in COS-7 cells, MEAN [2] | pKi for rat spinal cord membrane receptor binding, MEAN [3] | further results |
| --- | --- | --- | --- |
| neurokinin A: unrelated neuropeptide | – | – | inward current response [1]: failed to activate responses; also recorded: no response is observed |
| Cc1nc2sccn2c(=O)c1CCN1CCC(=C(c2ccc(F)cc2)c2ccc(F)cc2)CC1 [ritanserine] | 5.000 | 5.000 | – |
| N=C(N)NCCC[C@H](N)C(=O)O [L-arginine] | 5.000 | 5.000 | – |
| orexin A: unrelated neuropeptide (QPLPDCCRQKTCSCRLYELLHGAGNHAAGILTL; ends and bridges not checked; cysteine pairing not given here; UniProt O43612 34-66, looked up) | – | – | inward current response [1]: failed to activate responses; also recorded: no response is observed |
| a-MSH | – | 5.000 | – |
| CSCC[C@H](NC(=O)[C@@H]1CCCN1)C(=O)N[C@@H](CCCNC(=N)N)C(=O)N[C@@H](Cc1ccccc1)C(N)=O [PMRFa] (H-PMRF-NH2; N-terminus assumed) | – | – | Ki [2]: 2.82 nM |
| TEPGLEEVGEIEQKQLQ [nocistatin] | – | 5.000 | – |
| ibogaine | – | 5.000 | – |
| CNCCCN1c2ccccc2CCc2ccccc21 [desipramine] | 5.000 | 5.000 | – |
| C[C@@H]1CN([C@H]2CC[C@](C#N)(c3ccc(F)cc3)CC2)CC[C@]1(C(=O)O)c1ccccc1 [levocabastine] | 5.000 | 5.000 | – |
| NCCc1ccc(O)c(O)c1 [dopamine] | 5.000 | 5.000 | – |
| CC(C)C[C@H](NC(=O)[C@H](N)Cc1ccc(O)cc1)C(=O)N(C)[C@@H](Cc1ccccc1)C(=O)N[C@@H](CCC(N)=O)C(=O)N1CCC[C@H]1C(=O)N[C@@H](CCC(N)=O)C(=O)N[C@@H](CCCN=C(N)N)C(=O)N[C@@H](Cc1ccccc1)C(N)=O [(D-Tyr^1-(NMe)Phe^3)NPFF] (H-[dY]L[NMeF]QPQRF-NH2) | – | – | Ki [2]: 2.82 nM |
| CC(C)C[C@H](NC(=O)[C@@H](N)Cc1ccccc1)C(=O)N[C@@H](Cc1ccccc1)C(=O)N[C@@H](CCC(N)=O)C(=O)N1CCC[C@H]1C(=O)N[C@@H](CCC(N)=O)C(=O)N[C@@H](CCCNC(=N)N)C(=O)N[C@@H](Cc1ccccc1)C(N)=O [NPFF(F-8-Fa)] | – | – | Emax, total IP release ([4]; Cos-7 cells transfected with NPFF1 alone): approximately 200 % basal; Emax, total IP release ([4]; Cos-7 cells transfected with NPFF1 receptor and Gq/Gz chimera): approximately 1500 % basal; inward current response ([5]; 1 μM, oocytes with SNORF2 and Gαq/z, holding potential −80 mV): robust inward currents; threshold for activation of inward current ([5]; oocytes with SNORF2 and Gαq/z): 30 nM |
| CCNC(C)Cc1cccc(C(F)(F)F)c1 (centres unmarked) [fenfluramine] | 5.000 | 5.000 | – |
| CC(C)C[C@H](NC(=O)[C@H](CCCCN)NC(=O)[C@H](CCCN=C(N)N)NC(=O)[C@H](C)NC(=O)[C@H](CO)NC(=O)[C@H](CCCCN)NC(=O)[C@H](CCCN=C(N)N)NC(=O)[C@H](C)NC(=O)CNC(=O)[C@@H](NC(=O)[C@H](Cc1ccccc1)NC(=O)CNC(=O)CNC(=O)[C@@H](N)Cc1ccccc1)[C@@H](C)O)C(=O)N[C@@H](C)C(=O)N[C@@H](CC(N)=O)C(=O)N[C@@H](CCC(N)=O)C(=O)O [nociceptin] | 5.000 | 5.000 | activation of oocytes injected with SNORF2 synthetic RNA ([5]; unrelated neuropeptides and neurotransmitters, concentration not given): failed to activate |
